Results as given in ChEMBL document CHEMBL1148579, “Influence of various central moieties on the hypolipidemic properties of long hydrocarbon chain diols and diacids” (J Med Chem, 2006).

How the values were obtained:
Rattus norvegicus [1] = assay: Activity against high density lipoprotein cholesterol level in obese female Zucker rat serum after 1 week at 100 mg/kg (percent change from pre-treatment); format: functional
Hepatocyte = assay: Inhibition of lipid synthesis in primary rat hepatocytes by incorporation radiolabeled acetate into cellular lipids; format: functional, cell-based, Sprague-Dawley
Rattus norvegicus [2] = assay: Activity against non high density lipoprotein cholesterol level in obese female Zucker rat serum after 1 week at 100 mg/kg (percent change from pre-treatment); format: functional
Rattus norvegicus [3] = assay: Activity against non high density lipoprotein cholesterol level in obese female Zucker rat serum after 2 weeks at 100 mg/kg (percent change from pre-treatment); format: functional
Rattus norvegicus [4] = assay: Activity against high density lipoprotein cholesterol level in obese female Zucker rat serum after 2 weeks at 100 mg/kg (percent change from pre-treatment); format: functional
Rattus norvegicus [5] = assay: Activity against triglyceride level in obese female Zucker rat serum after 1 week at 100 mg/kg (percent change from pre-treatment); format: functional
Rattus norvegicus [6] = assay: Activity against triglyceride level in obese female Zucker rat serum after 2 weeks at 100 mg/kg (percent change from pre-treatment); format: functional
Rattus norvegicus [7] = assay: Tolerability of compound upto 2000 mg/kg; format: organism-based; design: dose 2000 mg/kg; settings: in vivo
Rattus norvegicus [8] = assay: Activity against non high density lipoprotein cholesterol level in obese female Zucker rat serum after 1 week at 53 mg/kg (percent change from pre-treatment); format: functional
Rattus norvegicus [9] = assay: Activity against high density lipoprotein cholesterol level in obese female Zucker rat serum after 2 weeks at 53 mg/kg (percent change from pre-treatment); format: functional
Rattus norvegicus [10] = assay: Activity against triglyceride level in obese female Zucker rat serum after 1 week at 53 mg/kg (percent change from pre-treatment); format: functional
Rattus norvegicus [11] = assay: Activity against triglyceride level in obese female Zucker rat serum after 2 weeks at 53 mg/kg (percent change from pre-treatment); format: functional
Rattus norvegicus [12] = assay: Activity against non high density lipoprotein cholesterol level in obese female Zucker rat serum after 2 weeks at 53 mg/kg (percent change from pre-treatment); format: functional
Rattus norvegicus [13] = assay: Activity against high density lipoprotein cholesterol level in obese female Zucker rat serum after 1 week at 53 mg/kg (percent change from pre-treatment); format: functional
Rattus norvegicus [14] = assay: Activity against non high density lipoprotein cholesterol level in obese female Zucker rat serum after 1 week at 30 mg/kg (percent change from pre-treatment); format: functional
Rattus norvegicus [15] = assay: Activity against non high density lipoprotein cholesterol level in obese female Zucker rat serum after 2 weeks at 30 mg/kg (percent change from pre-treatment); format: functional
Rattus norvegicus [16] = assay: Activity against high density lipoprotein cholesterol level in obese female Zucker rat serum after 1 week at 30 mg/kg (percent change from pre-treatment); format: functional
Rattus norvegicus [17] = assay: Activity against high density lipoprotein cholesterol level in obese female Zucker rat serum after 2 weeks at 30 mg/kg (percent change from pre-treatment); format: functional
Rattus norvegicus [18] = assay: Activity against triglyceride level in obese female Zucker rat serum after 1 week at 30 mg/kg (percent change from pre-treatment); format: functional
Rattus norvegicus [19] = assay: Activity against triglyceride level in obese female Zucker rat serum after 2 weeks at 30 mg/kg (percent change from pre-treatment); format: functional
Rattus norvegicus [20] = assay: Activity against high density lipoprotein cholesterol level in obese female Zucker rat serum after 2 weeks at 80 mg/kg (percent change from pre-treatment); format: functional
Rattus norvegicus [21] = assay: Activity against triglyceride level in obese female Zucker rat serum after 1 week at 80 mg/kg (percent change from pre-treatment); format: functional
Rattus norvegicus [22] = assay: Activity against triglyceride level in obese female Zucker rat serum after 2 weeks at 80 mg/kg (percent change from pre-treatment); format: functional
Rattus norvegicus [23] = assay: Activity against non high density lipoprotein cholesterol level in obese female Zucker rat serum after 1 week at 80 mg/kg (percent change from pre-treatment); format: functional
Rattus norvegicus [24] = assay: Activity against non high density lipoprotein cholesterol level in obese female Zucker rat serum after 2 weeks at 80 mg/kg (percent change from pre-treatment); format: functional
Rattus norvegicus [25] = assay: Activity against high density lipoprotein cholesterol level in obese female Zucker rat serum after 1 week at 80 mg/kg (percent change from pre-treatment); format: functional
[26] = Rattus norvegicus, Sprague-Dawley, Hepatocyte, read-out: IC50

| SMILES | Activity (Rattus norvegicus [1]) | IC50 (Hepatocyte; [26]) | Activity (Rattus norvegicus [2]) | Activity (Rattus norvegicus [3]) | Activity (Rattus norvegicus [4]) | Activity (Rattus norvegicus [5]) | Activity (Rattus norvegicus [6]) | also measured |
| --- | --- | --- | --- | --- | --- | --- | --- | --- |
| CC(C)(CO)CCCCOCCCCC(C)(C)CO | 234% | 10.7 µM | -38% | 11% | 366% | -77% | -71% | Activity (Rattus norvegicus [7]): Active |
| CC(C)(CO)CCCCNC(=O)NCCCCC(C)(C)CO | 66% | 3.4 µM | -33% | -5% | 92% | -42% | -31% |  |
| CC(C)(CO)CCC[S+]([O-])CCCC(C)(C)CO | 54% |  | 40% | 12% | 93% | -36% | -5% | IC50 (Hepatocyte; hepatocyte): Not Active |
| CC(C)(CO)CCCCOC(=O)CCCCC(C)(C)CO | 18% | 13 µM | -25% | -5% | 23% | -20% | 7% |  |
| CC(C)(CO)CCCCNCCCCC(C)(C)CO |  |  |  |  |  |  |  | Activity (Rattus norvegicus [8]): 78%; IC50 (Hepatocyte; hepatocyte): Not Active; Activity (Rattus norvegicus [9]): 16%; Activity (Rattus norvegicus [10]): -24%; Activity (Rattus norvegicus [11]): -32%; Activity (Rattus norvegicus [12]): -10%; Activity (Rattus norvegicus [13]): -23% |
| CC(=O)C(CCCCC(C)(C)CO)CCCCC(C)(C)CO |  | 46 µM |  |  |  |  |  | Activity (Rattus norvegicus [14]): 15%; Activity (Rattus norvegicus [15]): 52%; Activity (Rattus norvegicus [16]): -14%; Activity (Rattus norvegicus [17]): -19%; Activity (Rattus norvegicus [18]): -6%; Activity (Rattus norvegicus [19]): 22% |
| CC(CO)(CCCSCCCC(C)(CO)c1ccccc1)c1ccccc1 (stereo not given) | 9% | 41 µM | -26% | 8% | 2% | -18% | 1% |  |
| CC(C)(CO)CCCCOP(=O)(O)OCCCCC(C)(C)CO |  |  |  |  |  |  |  | Activity (Rattus norvegicus [20]): 8%; Activity (Rattus norvegicus [21]): -10%; Activity (Rattus norvegicus [22]): -13%; IC50 (Hepatocyte; hepatocyte): Not Active; Activity (Rattus norvegicus [23]): -29%; Activity (Rattus norvegicus [24]): -17%; Activity (Rattus norvegicus [25]): 27% |
| CC(C)(CO)CCCCN(O)CCCCC(C)(C)CO |  | 63 µM |  |  |  |  |  | Activity (Rattus norvegicus [14]): -40%; Activity (Rattus norvegicus [15]): -5%; Activity (Rattus norvegicus [16]): 27%; Activity (Rattus norvegicus [17]): 19%; Activity (Rattus norvegicus [18]): -26%; Activity (Rattus norvegicus [19]): 13% |
| CC(CCCCSCCCCC(C)(C(=O)O)c1ccccc1)(C(=O)O)c1ccccc1 (stereo not given) |  | 26 µM |  |  |  |  |  |  |
| CC(CO)(CCCC[S+]([O-])CCCCC(C)(CO)c1ccccc1)c1ccccc1 (stereo not given) |  | 81 µM |  |  |  |  |  |  |
| CC(C)(CO)CCCCCCCCCC(C)(C)CO | 189% |  | -67% | -75% | 137% | -83% | -82% |  |
| CC(C)(CO)CCCCS(=O)(=O)CCCCC(C)(C)CO | 15% | 8.9 µM | -46% | -34% | -13% | -34% | -19% |  |
| CC(CO)(CCC[S+]([O-])CCCC(C)(CO)c1ccccc1)c1ccccc1 (stereo not given) |  |  |  |  |  |  |  | Activity (Rattus norvegicus [20]): -36%; Activity (Rattus norvegicus [21]): 18%; Activity (Rattus norvegicus [22]): 41%; IC50 (Hepatocyte; hepatocyte): Not Active; Activity (Rattus norvegicus [23]): 68%; Activity (Rattus norvegicus [24]): 81%; Activity (Rattus norvegicus [25]): -23% |
| CC(C)(CO)CCCSCCCC(C)(C)CO |  | 15 µM |  |  |  |  |  | Activity (Rattus norvegicus [14]): -40%; Activity (Rattus norvegicus [15]): -14%; Activity (Rattus norvegicus [16]): 54%; Activity (Rattus norvegicus [17]): 40%; Activity (Rattus norvegicus [18]): -51%; Activity (Rattus norvegicus [19]): -34% |
| CC(CO)(CCCCSCCCCC(C)(CO)c1ccccc1)c1ccccc1 (stereo not given) |  | 64 µM |  |  |  |  |  |  |
| CC(C)(CO)CCCCNC(=O)OCCCCC(C)(C)CO | 60% | 0.8 µM | 10% | 84% | 65% | -52% | -4% |  |
| CC(C)(CO)CCCCC(CO)CCCCC(C)(C)CO | 2% | 15 µM | -43% | -12% | -2% | -52% | -23% |  |
| CC(C)(CO)CCCCNC(=O)CCCCC(C)(C)CO |  |  |  |  |  |  |  | IC50 (Hepatocyte; hepatocyte): Not Active; Activity (Rattus norvegicus [14]): -21%; Activity (Rattus norvegicus [15]): -7%; Activity (Rattus norvegicus [16]): 2%; Activity (Rattus norvegicus [17]): 20%; Activity (Rattus norvegicus [18]): -20%; Activity (Rattus norvegicus [19]): -10% |
| CC(C)(CO)CCCCC(O)CCCCC(C)(C)CO | 219% | 6.4 µM | -61% | -15% | 222% | -70% | -46% |  |
| CC(C)(CCCCCC(=O)CCCCCC(C)(C)C(=O)O)C(=O)O | 72% |  | -98% | -99% | 168% | -93% | -94% |  |
| CC(C)(CO)CCCC[S+]([O-])CCCCC(C)(C)CO | 127% |  | 56% | 64% | 233% | -37% | -35% | IC50 (Hepatocyte; hepatocyte): Not Active |
